Results: patent US20240018146A1, “COMPOSITIONS AND METHODS OF USING THE SAME FOR TREATMENT OF NEURODEGENERATIVE AND MITOCHONDRIAL DISEASE” (MITOKININ, INC., priority 2020, published 2024)
Values after ≈ are worked out from the molar mass of the structure shown. “Also recorded” adds a separate entry of the source. Read-outs that look alike come from different tables or passages of the source.

Tests used:
[1] = tested on: Parkin; experiment: Parkin recruitment to mitochondria (HeLa cells expressing YFP-tagged Parkin, longitudinal imaging); type: cell-based, human; conditions: FCCP and Oligomycin, cells with Parkin recruited at 60 minutes, FIG. 29
Method: HeLa cells expressing a YFP-tagged Parkin were treated with […] of FCCP and Oligomycin followed by the specified dose of compound, then analyzed by longitudinal imaging. Percentage of cells with Parkin recruited to mitochondria at 60 minutes is shown.

[2] = tested on: HeLa MKYP cells; experiment: Cell death measured by DAPI staining, with 1 μM FCCP/oligomycin or no toxin (no FO); type: cell-based; conditions: for E105 death at 8.3 μM (no FO): 8.3 μM compound; for E104 death at 25 μM (no FO) / Max cell death at 25 μM compound, 1 uM FO (%) / Cell death at 25 μM (no FO) (%): 25 μM compound
Procedure, shortened: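 HeLa MKYP cells were treated with compounds alongside 1 μM FCCP/oligomycin or no toxin for 6 or 6.5 h. Cell death was scored by DAPI staining, with H2O2 treatment as the death control.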

[3] = tested on: pS129 α-syn; experiment: Preformed fibril (PFF) model in primary neuron culture, pS129 α-syn; type: cell-based; conditions: for pathological α-synuclein levels in primary neurons: FIG. 8A-C
Method: 4. Preformed Fibril Model
Mouse and human alpha-synuclein monomers have been sourced commercially, then pre-formed fibrils have been generated as per the detailed protocol provided by the MJFF. For in vitro experiments primary hippocampal neurons isolated from P0 pups were grown for 7 days after which PFFs at 5 ug/ml were introduced Pre-formed fibrils will be introduced via stereotactic injection into the striatum of wt (C57BL/6J, Jax #000664) and transgenic A53T mice (B6;C3-Tg(Prnp-SNCA*A53T)83Vle/J, Jax #004479). Cohorts of drug-treated (oral gavage) and untreated animals will then be allowed to age for up to 6 months, at which point they will be sacrificed and perfused. Brains will be removed and fixed, then sectioned for analysis. We anticipate that untreated A53T animals will show significant spreading of aggregated alpha-synuclein pathology and pS129 staining, as well as some possible neurodegeneration; wt animals are also expected to show pS129 synuclein staining and synuclein aggregation, albeit less than that seen in the A53T background.

[4] = Inspection of crystallization and round cells; type: physicochemical; set-up: key: 1=yes crystals; 0=no crystals
Method: 5. Inspection of Crystallization and Round Cells
Briefly, the Hela MKYP (Mito-Keima/YFP-Parkin) cells were seeded at 10K cells/well. EP/MTK compounds were added at seeding (cells were still in suspension). The cells were incubated with the EP/MTK compounds for 16 hours, then 1 μM FCCP/oligomycin was added for 6 hours. Prior to harvesting, cells were scored by eye under 20× magnification for the presence or absence of crystalline or aggregated compound, or round cells.

[5] = tested on: HeLa MKYP cells; experiment: Human mitophagy assay (HeLa mKeima assay, FACS); type: cell-based; conditions: for EC50: Homo sapiens, HeLa
Procedure, shortened: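 HeLa cells carrying the pH-sensitive mtKeima tag incubated 16 h with compound at several concentrations, then 1 uM FCCP/oligomycin for 6 h. FACS detects mitochondria in lysosomes through the Keima emission shift, quantified as percentage of cells in mitophagy.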

[6] = Mitotoxicity / Mitotox safety margin (therapeutic window); type: cell-based; conditions: for mitotoxicity: FIG. 5-7
[7] = Kinetic solubility; type: physicochemical
[8] = tested on: cleaved caspase-3; experiment: Cleaved caspase-3 levels in primary neuron culture; type: cell-based; conditions: compared with toxins
[9] = 25.0 μM compound, HeLa MKYP culture, 20× magnification
[10] = mitophagy, 1 μM FCCP/oligomycin, read-out: E100 EC50
[11] = mitophagy, 1 μM FCCP/oligomycin
[12] = HeLa mKeima assay, read-out: Mitophagy EC50 (HeLa mKeima assay)
[13] = read-out: Mitophagy induction EC50

SMILES	E105 death at 8.3 μM (no FO) [2]	E104 death at 25 μM (no FO) [2]	E103 max death with 1 μM FO [2]	visual inspection of crystallization ([4]; 0.1 μM compound)	visual inspection of crystallization ([4]; 0.3 μM compound)	visual inspection of crystallization ([4]; 0.9 μM compound)	visual inspection of crystallization ([4]; 2.8 μM compound)	visual inspection of crystallization ([4]; 8.3 μM compound)	E102 max mitophagy, fold over DMSO ([5]; 1 μM FCCP/oligomycin) [fold over DMSO]	EC50 [5, 10] [µM]	E101 lowest effective dose [5, 11] [µM]	Mitotox safety margin (Therapeutic window) [6]	Max cell death at 25 μM compound, 1 uM FO (%) [2] [%]	Cell death at 25 μM (no FO) (%) [2] [%]	solubility kinetic [7] [µM]	EC50 [5, 12] [µM]	Highest safe dose (μM) (mitotox or cytotox) [6] [µM]	Highest safe dose (cytotoxicity; no FO; safe means DAPI+ <20%) [2] [µM]	Max % death with 1 μM FO [2] [%]	EC50 [5, 13] [µM]	other results
FC(F)(F)c1cc2c(NC3CCCc4ccccc43)ncnc2[nH]1 (single isomer, unassigned) [EP-0035985]	2.54	3.01	8.14	0	0	0	0	0	4.43	0.33	0.31	–	–	–	–	–	–	–	–	–	Parkin recruitment to mitochondria [1]: accelerate recruitment of Parkin to mitochondria; also recorded: dose responsive increase in the rate of Parkin recruitment to mitochondria; pathological α-synuclein levels in primary neurons [3]: reduce pathological α-synuclein levels; visual inspection of crystallization [4, 9]: 0; percentage of cells undergoing mitophagy ([5]; HeLa cells expressing mtKeima, FCCP and Oligomycin, FACS, FIG. 28): induce mitophagy in a dose dependent manner; also recorded: dose responsive increase in the percentage of cells undergoing mitophagy
FC(F)(F)c1cc2c(N[C@H]3c4ccccc4CC[C@@H]3N3CCOCC3)ncnc2[nH]1 (single isomer, unassigned) [EP-0038098]	2.59	5.29	24.02	–	–	–	–	–	9.78	0.22	0.10	++++ (++++ = 30<)	24	5.29	14.1 (≈ 5.89 µg/mL)	0.22	–	–	–	–	toxicity ([2]; text statement referring to Tables 2A and 2B, FIG. 1A-F): less than 10%; pathological α-synuclein levels in primary neurons [3]: reduce pathological α-synuclein levels; EC50 ([5]; text statement referring to Tables 2A and 2B, FIG. 1A-F, read-out: EC50): < 0.3 µM
FC(F)(F)c1cc2c(N[C@H]3c4ccccc4CC[C@@H]3N3CC4(CCOCC4)C3)ncnc2[nH]1 (single isomer, unassigned) [EP-0038463]	4.21	59.77	87.81	0	0	0	0	0	3.95	2.59	2.78	+ (+ = <10)	87.805	59.8	153 (≈ 70 µg/mL)	2.59	8.3	8.3	87.8	2.59	mitotoxicity [6]: low mitotoxicity; Mito-Safety Index (highest safe dose/EC50) [6]: 3.20; visual inspection of crystallization [4, 9]: 0
FC(F)(F)c1cc2c(N[C@H]3c4ccccc4CC[C@@H]3N3C[C@H]4COC[C@H]4C3)ncnc2[nH]1 (single isomer, unassigned) [EP-0038582]	–	–	–	–	–	–	–	–	–	–	–	–	5.87	3.77	–	–	25.0	25.0	4.3	> 25	solubility kinetic ([7]; kinetic from dmso stock): 1.56 µM (≈ 0.692 µg/mL); Mitophagy EC50 (HeLa mKeima assay) (μM) ([5]; HeLa mKeima assay): Minimal
FC(F)(F)c1cc2c(N[C@@H]3c4ccccc4CC[C@H]3N3C[C@H]4COC[C@H]4C3)ncnc2[nH]1 (single isomer, unassigned) [EP-0038583]	–	–	–	–	–	–	–	–	–	–	–	+ (+ = <10)	39.5	6.03	1.56 (≈ 0.692 µg/mL)	0.07	9.1	25.0	18.1	0.06	Mito-Safety Index (highest safe dose/EC50) [6]: 158.93
FC(F)(F)c1cc2c(N[C@H]3c4ccccc4CC[C@@H]3N3C[C@@H]4COC[C@H]4C3)ncnc2[nH]1 (single isomer, unassigned) [EP-0040270]	–	–	–	–	–	–	–	–	–	–	–	–	–	–	–	–	–	–	–	–	cleaved caspase-3 levels [8]: increase cleaved caspase-3 levels; pS129 α-syn (250-12) in primary neuron culture ([3]; increasing doses): reduces; pS129 α-syn (monomer) in primary neuron culture ([3]; increasing doses): reduces; pS129 α-syn in primary neuron culture ([3]; increasing doses): reduces
FC(F)(F)c1cc2c(N[C@@H]3c4ccccc4CC[C@@H]3N3CCOCC3)ncnc2[nH]1 [EP-0037820]	–	–	–	–	–	–	–	–	–	–	–	+ (+ = <10)	58	41.4	14.5 (≈ 6.05 µg/mL)	17.4	–	16.7	60.7	20.3	–
FC(F)(F)c1cc2c(N[C@H]3c4ccccc4CC[C@@H]3N3C[C@H]4COC[C@H]4C3)ncnc2[nH]1 [EP-0038461]	–	–	7.97	0	0	0	0	0	5.44	0.11	0.93	+++ (+++ = 20 < x < 30)	7.97	4.31	1.56 (≈ 0.692 µg/mL)	0.11	2.8	25.0	9.7	0.1	mitotoxicity [6]: low mitotoxicity; Mito-Safety Index (highest safe dose/EC50) [6]: 27.53; visual inspection of crystallization [4, 9]: 1; EC50 ([5]; average ± spread, read-out: E100 EC50 (μM) (average)): 0.1 ± 0.01 µM
